The subject of series [1] is Botryotinia fuckeliana (Botrytis cinerea). The series can be described thus: Botryotinia fuckeliana (Botrytis cinerea) / liquid culture (gray mould). It is filed as cell-based. The note with it: 72 h, read-out: control of Botryotinia fuckeliana.
Series [2] deals with Fusarium culmorum. Put plainly: microbe, parasite or virus in culture. The series is classed as cell-based. The note with it: read-out: control of Fusarium culmorum.
The test system of series [3] is Glomerella lagenarium (Colletotrichum lagenarium). Put plainly: Glomerella lagenarium (Colletotrichum lagenarium) / liquid culture (anthracnose). It is filed as cell-based. The note with it: Colletotrichum orbiculare; read-out: control of Glomerella lagenarium.
Series [4] has as its system Gaeumannomyces graminis. The series can be described thus: Gaeumannomyces graminis / liquid culture (take-all of cereals). It is filed as cell-based. The note with it: read-out: control of Gaeumannomyces graminis.
In series [5] the test system is Monographella nivalis (Microdochium nivale). Put plainly: Monographella nivalis (Microdochium nivale) / liquid culture (foot rot cereals). The series is classed as cell-based. The note with it: 96 h, read-out: control of Monographella nivalis.
Series [6] deals with Magnaporthe grisea (Pyricularia oryzae). The series can be described thus: microbe, parasite or virus in culture. The note with it: 72 h, read-out: control of Magnaporthe grisea. The series is classed as cell-based.
For series [7], the system named is Sclerotinia sclerotiorum. Put plainly: Sclerotinia sclerotiorum / liquid culture (cottony rot). Particulars: 72 h, read-out: control of Sclerotinia sclerotiorum.
Description: Sclerotinia sclerotiorum/Liquid Culture (Cottony Rot)
Mycelia fragments of a newly grown liquid culture of the fungus are directly mixed into nutrient broth (Vogels broth). After placing a (DMSO) solution of test compound into a microtiter plate (96-well format) the nutrient broth containing the fungal material is added. The test plates are incubated at 24° C. and the inhibition of growth is determined photometrically 3-4 days after application.
Series [8] concerns Fusarium culmorum. The series can be described thus: whole plant or invertebrate. The series is classed as in vivo. The note with it: in Triticum aestivum, read-out: control of Fusarium culmorum.

Regarding `CC(C)CC(C)(Cc1ccccc1)NC(=O)c1cnc2c(Cl)cccc2c1` (stereo not drawn) [Compound E-14, N-(1-benzyl-1,3-dimethyl-butyl)-8-chloro-quinoline-3-carboxamide], the melting point fell in the range of 147 to 148 °C. In addition, in [1], the inhibition of growth at 200 ppm was ≥ 80%. In addition, the inhibition of growth at 200 ppm in series [2] is ≥ 80%. In addition, in series [3], the inhibition of growth at 200 ppm is ≥ 80%. Further, the inhibition of growth at 200 ppm in series [4] was ≥ 80%. Further, in series [5], the inhibition of growth at 200 ppm was ≥ 80%. In [6], the inhibition of growth at 200 ppm was ≥ 80%. For the same molecule, in series [7], the inhibition of growth at 20 ppm is ≥ 80%.

For the molecule `Cc1c(C(=O)NC(C)(Cc2ccccc2)CC(C)C)cnc2c(F)cccc12` (stereo not drawn) [Compound E-15, N-(1-benzyl-1,3-dimethyl-butyl)-8-fluoro-4-methyl-quinoline-3-carboxamide], the melting point is 92 to 94 °C. Further, the inhibition of growth at 200 ppm in series [1] was ≥ 80%. The inhibition of growth at 200 ppm in series [2] is ≥ 80%. In addition, the pest or weed control at 200 ppm in series [8] is ≥ 80%. In series [3], the inhibition of growth at 200 ppm is ≥ 80%. Moreover, the inhibition of growth at 200 ppm in [6] is ≥ 80%. Besides, the inhibition of growth at 20 ppm in series [7] was ≥ 80%.

Turning to `Cc1cccc2cc(C(=O)NC(C)(Cc3ccccc3)CC(C)C)cnc12` (stereo not drawn) [Compound E-20, N-(1-benzyl-1,3-dimethyl-butyl)-8-methyl-quinoline-3-carboxamide], the melting point is 132 to 133 °C. In [1], the inhibition of growth at 200 ppm was ≥ 80%. The inhibition of growth at 200 ppm in series [2] was ≥ 80%. The pest or weed control at 200 ppm in [8] was ≥ 80%. For the same molecule, the inhibition of growth at 200 ppm in series [3] is ≥ 80%. Further, the inhibition of growth at 200 ppm in series [4] is ≥ 80%. For the same molecule, the inhibition of growth at 200 ppm in series [5] is ≥ 80%. In addition, in series [6], the inhibition of growth at 200 ppm is ≥ 80%. Further, the inhibition of growth at 20 ppm in series [7] was ≥ 80%.

Turning to `Cc1ccccc1CC(C)(CC(C)C)NC(=O)c1cnc2c(F)cccc2c1` (stereo not drawn) [Compound E-23, N-[1,3-dimethyl-1-(o-tolylmethyl)butyl]-8-fluoro-quinoline-3-carboxamide], the melting point is 125 to 126 °C. Further, in series [1], the inhibition of growth at 200 ppm was ≥ 80%. The inhibition of growth at 200 ppm in series [2] was ≥ 80%. Besides, in series [8], the pest or weed control at 200 ppm was ≥ 80%. Moreover, the inhibition of growth at 200 ppm in series [3] is ≥ 80%. The inhibition of growth at 200 ppm in series [4] was ≥ 80%. The inhibition of growth at 200 ppm in series [5] is ≥ 80%. Besides, the inhibition of growth at 200 ppm in [6] was ≥ 80%.

Consider `CC(C)CC(C)(Cc1ccc(F)cc1)NC(=O)c1cnc2c(F)cccc2c1` (stereo not drawn) [Compound E-24, 8-fluoro-N-[1-[(4-fluorophenyl)methyl]-1,3-dimethyl-butyl]quinoline-3-carboxamide], for which the melting point was in the range of 38 to 39 °C. In addition, the inhibition of growth at 200 ppm in [1] was ≥ 80%. The inhibition of growth at 200 ppm in [2] was ≥ 80%. Also, the pest or weed control at 200 ppm in [8] was ≥ 80%. In addition, the inhibition of growth at 200 ppm in series [3] was ≥ 80%. The inhibition of growth at 200 ppm in series [4] was ≥ 80%. For the same molecule, the inhibition of growth at 200 ppm in [5] is ≥ 80%. Besides, in series [6], the inhibition of growth at 200 ppm is ≥ 80%. For the same molecule, the inhibition of growth at 20 ppm in series [7] is ≥ 80%.

For the molecule `CC(C)CC(C)(Cc1ccc(Cl)cc1)NC(=O)c1cnc2c(F)cccc2c1` (stereo not drawn) [Compound E-25], the melting point fell in the range of 57 to 59 °C. The inhibition of growth at 200 ppm in series [1] was ≥ 80%. The inhibition of growth at 200 ppm in series [2] was ≥ 80%. Besides, the pest or weed control at 200 ppm in series [8] is ≥ 80%. The inhibition of growth at 200 ppm in series [3] was ≥ 80%. Also, in [4], the inhibition of growth at 200 ppm was ≥ 80%. In addition, the inhibition of growth at 200 ppm in [6] was ≥ 80%. The inhibition of growth at 20 ppm in [7] is ≥ 80%.

`CC(C)CC(C)(Cc1cccc(F)c1)NC(=O)c1cnc2c(F)cccc2c1` (stereo not drawn) [Compound E-26, 8-fluoro-N-[1-[(3-fluorophenyl)methyl]-1,3-dimethyl-butyl]quinoline-3-carboxamide] returned a melting point of 45 to 47 °C. Also, in series [1], the inhibition of growth at 200 ppm is ≥ 80%. Also, the inhibition of growth at 200 ppm in [2] was ≥ 80%. Besides, in [8], the pest or weed control at 200 ppm was ≥ 80%. The inhibition of growth at 200 ppm in series [3] is ≥ 80%. Also, the inhibition of growth at 200 ppm in series [4] is ≥ 80%. In addition, the inhibition of growth at 200 ppm in series [5] was ≥ 80%. In series [6], the inhibition of growth at 200 ppm is ≥ 80%. Also, the inhibition of growth at 20 ppm in series [7] was ≥ 80%.

In the case of `CC(C)CC(Cc1ccccc1)NC(=O)c1cnc2c(F)cccc2c1` (stereo not drawn) [Compound E-29, N-(1-benzyl-3-methyl-butyl)-8-fluoro-quinoline-3-carboxamide], the melting point lay in the range of 136 to 139 °C. The inhibition of growth at 200 ppm in [1] is ≥ 80%. Besides, the inhibition of growth at 200 ppm in series [2] is ≥ 80%. Further, the pest or weed control at 200 ppm in series [8] was ≥ 80%. In addition, the inhibition of growth at 200 ppm in series [3] was ≥ 80%. Besides, in [6], the inhibition of growth at 200 ppm was ≥ 80%. Also, the inhibition of growth at 20 ppm in series [7] is ≥ 80%.

`CC(C)(C)CC(C)(Cc1ccccc1)NC(=O)c1cnc2c(F)cccc2c1` (stereo not drawn) [Compound E-34, N-(1-benzyl-1,3,3-trimethyl-butyl)-8-fluoro-quinoline-3-carboxamide] returned a melting point of 48 to 50 °C. For the same molecule, in [1], the inhibition of growth at 200 ppm is ≥ 80%. For the same molecule, the inhibition of growth at 200 ppm in series [2] was ≥ 80%. The inhibition of growth at 200 ppm in [3] is ≥ 80%. Further, the inhibition of growth at 200 ppm in series [5] was ≥ 80%. For the same molecule, the inhibition of growth at 200 ppm in series [6] was ≥ 80%. Moreover, the inhibition of growth at 20 ppm in series [7] is ≥ 80%.

`C=C(C)CC(C)(Cc1ccccc1)NC(=O)c1cnc2ccccc2c1` (stereo not drawn) [Compound E-36, N-(1-benzyl-1,3-dimethyl-but-3-enyl)quinoline-3-carboxamide] had a melting point of 99 to 103 °C. Moreover, the inhibition of growth at 200 ppm in [1] was ≥ 80%. In addition, the inhibition of growth at 200 ppm in [2] was ≥ 80%. Further, in [8], the pest or weed control at 200 ppm is ≥ 80%. In series [3], the inhibition of growth at 200 ppm was ≥ 80%. In addition, the inhibition of growth at 200 ppm in series [5] was ≥ 80%. Besides, the inhibition of growth at 200 ppm in [6] is ≥ 80%. Further, the inhibition of growth at 20 ppm in series [7] is ≥ 80%.

As for `CC(Cc1ccccc1)(CC(F)(F)F)NC(=O)c1cnc2c(F)cccc2c1` (stereo not drawn) [Compound E-39, N-(1-benzyl-3,3,3-trifluoro-1-methyl-propyl)-8-fluoro-quinoline-3-carboxamide], the melting point is 158 to 160 °C. For the same molecule, in series [1], the inhibition of growth at 200 ppm was ≥ 80%. The inhibition of growth at 200 ppm in [2] was ≥ 80%. Also, in series [8], the pest or weed control at 200 ppm is ≥ 80%. Besides, the inhibition of growth at 200 ppm in [3] was ≥ 80%. The inhibition of growth at 200 ppm in series [4] is ≥ 80%. Further, the inhibition of growth at 200 ppm in series [6] was ≥ 80%. Also, in [7], the inhibition of growth at 20 ppm is ≥ 80%.

Turning to `CC1(CC(C)(Cc2ccccc2)NC(=O)c2cnc3c(F)cccc3c2)CC1` (stereo not drawn) [Compound E-47, N-[1-benzyl-1-methyl-2-(1-methylcyclopropyl)ethyl]-8-fluoro-quinoline-3-carboxamide], the melting point was 126 to 129 °C. Besides, the inhibition of growth at 200 ppm in [1] was ≥ 80%. Also, the inhibition of growth at 200 ppm in series [2] was ≥ 80%. For the same molecule, the inhibition of growth at 200 ppm in series [3] was ≥ 80%. Also, in series [4], the inhibition of growth at 200 ppm is ≥ 80%. For the same molecule, the inhibition of growth at 200 ppm in series [6] was ≥ 80%. In addition, in [7], the inhibition of growth at 20 ppm is ≥ 80%.

With `CC(C)CC(C)(Cc1ccccc1)NC(=O)c1cnc2c(F)c(F)ccc2c1` (stereo not drawn) [Compound E-48, N-(1-benzyl-1,3-dimethyl-butyl)-7,8-difluoro-quinoline-3-carboxamide], the melting point is 114 to 116 °C. Further, in [1], the inhibition of growth at 200 ppm is ≥ 80%. Besides, the inhibition of growth at 200 ppm in [2] was ≥ 80%. For the same molecule, the pest or weed control at 200 ppm in series [8] was ≥ 80%. In addition, the inhibition of growth at 200 ppm in [3] was ≥ 80%. Also, the inhibition of growth at 200 ppm in series [4] was ≥ 80%. The inhibition of growth at 200 ppm in series [5] was ≥ 80%. Besides, the inhibition of growth at 200 ppm in series [6] was ≥ 80%.

In turn, `CC(C)CC(C)(Cc1ccccc1)NC(=S)c1cnc2c(F)cccc2c1` (stereo not drawn) [Compound E-114, N-(1-benzyl-1,3-dimethyl-butyl)-8-fluoro-quinoline-3-carbothioamide] displayed a melting point of 150 to 153 °C. Further, the inhibition of growth at 200 ppm in series [1] is ≥ 80%. The inhibition of growth at 200 ppm in [2] is ≥ 80%. In addition, in series [8], the pest or weed control at 200 ppm is ≥ 80%. For the same molecule, the inhibition of growth at 200 ppm in series [3] is ≥ 80%. Also, the inhibition of growth at 200 ppm in series [5] was ≥ 80%. In addition, the inhibition of growth at 200 ppm in series [6] is ≥ 80%. The inhibition of growth at 20 ppm in series [7] was ≥ 80%.

With `CC(C)C[C@](C)(Cc1ccccc1)NC(=O)c1cnc2c(F)cccc2c1` [Compound F-1, N-[(1R)-1-benzyl-1,3-dimethyl-butyl]-8-fluoro-quinoline-3-carboxamide], the inhibition of growth at 200 ppm in series [1], in series [2], in series [3], in [4], in series [5] and in [6] was ≥ 80% each time. Also, the pest or weed control at 200 ppm in series [8] was ≥ 80%. In series [7], the inhibition of growth at 20 ppm was ≥ 80%.

On to `C=C(C)C[C@](C)(Cc1ccccc1)NC(=O)c1cnc2c(F)cccc2c1` [Compound F-10, N-[(1R)-1-benzyl-1,3-dimethyl-but-3-enyl]-8-fluoro-quinoline-3-carboxamide], for which the inhibition of growth at 200 ppm in [1], in series [2], in series [3], in series [4] and in [5] was ≥ 80% throughout. In addition, the pest or weed control at 200 ppm in [8] was ≥ 80%. Moreover, the inhibition of growth at 20 ppm in [7] is ≥ 80%.
